Test results published in ChEMBL document CHEMBL5260810, “Inhibition of bromodomain-containing protein 9 for the prevention of epigenetically-defined drug resistance” (Bioorg Med Chem Lett, 2017).

Assays:
[1] = Cytotoxicity against human NCI-H1869 cells measured after 8 days; format: functional, cell-based; conditions: NCI-H1869, 192 h
[2] = Cytotoxicity against human NCI-H2803 cells measured after 8 days; format: functional, cell-based; conditions: NCI-H2803, 192 h
[3] = test system: IGROV-1; experiment: Cytotoxicity against human IGROV-1 cells measured after 8 days; format: functional, cell-based; conditions: IGROV-1, 192 h
[4] = test system: MDA-MB-436; experiment: Cytotoxicity against human MDA-MB-436 cells measured after 8 days; format: functional, cell-based; conditions: MDA-MB-436, 192 h
[5] = test system: YMB-1-E; experiment: Cytotoxicity against human YMB-1-E cells measured after 8 days; format: functional, cell-based; conditions: 192 h
[6] = test system: A549; experiment: Cytotoxicity against human A549 cells measured after 8 days; format: functional, cell-based; conditions: A549, 192 h
[7] = molecular target: T1, ATPase family AAA domain-containing protein 2 (Homo sapiens, UniProt Q6PL18); experiment: Binding affinity to human partial length ATAD2A (Q981 to R1108 residues) expressed in bacterial expression system by BROMOscan assay
T1 sequence (Q6PL18 whole entry): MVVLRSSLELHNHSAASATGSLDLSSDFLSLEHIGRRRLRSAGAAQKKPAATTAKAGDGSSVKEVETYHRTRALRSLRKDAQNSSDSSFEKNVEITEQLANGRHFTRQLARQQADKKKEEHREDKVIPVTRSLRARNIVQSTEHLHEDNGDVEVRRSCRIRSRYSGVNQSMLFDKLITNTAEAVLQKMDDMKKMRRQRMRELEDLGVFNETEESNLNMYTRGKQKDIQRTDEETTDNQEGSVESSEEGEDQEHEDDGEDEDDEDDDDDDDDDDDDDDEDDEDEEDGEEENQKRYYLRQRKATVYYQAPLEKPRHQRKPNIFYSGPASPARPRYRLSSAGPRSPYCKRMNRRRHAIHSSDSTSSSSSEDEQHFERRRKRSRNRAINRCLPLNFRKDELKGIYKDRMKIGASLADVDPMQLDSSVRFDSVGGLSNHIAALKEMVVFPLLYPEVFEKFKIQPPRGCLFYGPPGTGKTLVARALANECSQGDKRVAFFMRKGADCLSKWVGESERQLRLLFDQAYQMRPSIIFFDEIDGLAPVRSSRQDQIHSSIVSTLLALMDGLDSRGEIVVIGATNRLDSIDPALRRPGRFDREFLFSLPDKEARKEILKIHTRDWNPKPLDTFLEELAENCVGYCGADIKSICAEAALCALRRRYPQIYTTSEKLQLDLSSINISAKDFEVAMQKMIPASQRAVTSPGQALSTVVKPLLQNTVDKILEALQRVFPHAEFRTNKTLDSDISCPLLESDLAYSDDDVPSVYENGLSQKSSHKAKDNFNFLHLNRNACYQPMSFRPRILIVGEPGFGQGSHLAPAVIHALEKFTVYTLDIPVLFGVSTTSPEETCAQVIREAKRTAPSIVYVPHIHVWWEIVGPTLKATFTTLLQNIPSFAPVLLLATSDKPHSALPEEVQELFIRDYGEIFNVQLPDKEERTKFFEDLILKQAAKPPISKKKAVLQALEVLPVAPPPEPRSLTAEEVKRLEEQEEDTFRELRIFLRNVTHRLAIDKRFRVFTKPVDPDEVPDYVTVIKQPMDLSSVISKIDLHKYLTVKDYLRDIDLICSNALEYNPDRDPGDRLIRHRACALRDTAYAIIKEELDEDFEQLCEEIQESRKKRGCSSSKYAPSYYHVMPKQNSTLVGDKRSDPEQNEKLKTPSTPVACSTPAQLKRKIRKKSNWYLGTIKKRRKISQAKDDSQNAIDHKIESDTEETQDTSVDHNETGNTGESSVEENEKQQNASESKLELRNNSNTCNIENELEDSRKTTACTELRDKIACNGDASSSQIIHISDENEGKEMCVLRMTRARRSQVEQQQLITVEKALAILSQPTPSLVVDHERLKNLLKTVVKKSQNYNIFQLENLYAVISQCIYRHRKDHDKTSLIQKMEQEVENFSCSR

[8] = molecular target: Bromodomain adjacent to zinc finger domain protein 2A (Homo sapiens, UniProt Q9UIF9); experiment: Binding affinity to human partial length BAZ2A (M1792 to L1905 residues) expressed in bacterial expression system by BROMOscan assay
[9] = molecular target: T2, Bromodomain-containing protein 1 (Homo sapiens, UniProt O95696); experiment: Binding affinity to human partial length BRD1 (E556 to A688 residues) expressed in bacterial expression system by BROMOscan assay
T2 sequence (O95696 whole entry): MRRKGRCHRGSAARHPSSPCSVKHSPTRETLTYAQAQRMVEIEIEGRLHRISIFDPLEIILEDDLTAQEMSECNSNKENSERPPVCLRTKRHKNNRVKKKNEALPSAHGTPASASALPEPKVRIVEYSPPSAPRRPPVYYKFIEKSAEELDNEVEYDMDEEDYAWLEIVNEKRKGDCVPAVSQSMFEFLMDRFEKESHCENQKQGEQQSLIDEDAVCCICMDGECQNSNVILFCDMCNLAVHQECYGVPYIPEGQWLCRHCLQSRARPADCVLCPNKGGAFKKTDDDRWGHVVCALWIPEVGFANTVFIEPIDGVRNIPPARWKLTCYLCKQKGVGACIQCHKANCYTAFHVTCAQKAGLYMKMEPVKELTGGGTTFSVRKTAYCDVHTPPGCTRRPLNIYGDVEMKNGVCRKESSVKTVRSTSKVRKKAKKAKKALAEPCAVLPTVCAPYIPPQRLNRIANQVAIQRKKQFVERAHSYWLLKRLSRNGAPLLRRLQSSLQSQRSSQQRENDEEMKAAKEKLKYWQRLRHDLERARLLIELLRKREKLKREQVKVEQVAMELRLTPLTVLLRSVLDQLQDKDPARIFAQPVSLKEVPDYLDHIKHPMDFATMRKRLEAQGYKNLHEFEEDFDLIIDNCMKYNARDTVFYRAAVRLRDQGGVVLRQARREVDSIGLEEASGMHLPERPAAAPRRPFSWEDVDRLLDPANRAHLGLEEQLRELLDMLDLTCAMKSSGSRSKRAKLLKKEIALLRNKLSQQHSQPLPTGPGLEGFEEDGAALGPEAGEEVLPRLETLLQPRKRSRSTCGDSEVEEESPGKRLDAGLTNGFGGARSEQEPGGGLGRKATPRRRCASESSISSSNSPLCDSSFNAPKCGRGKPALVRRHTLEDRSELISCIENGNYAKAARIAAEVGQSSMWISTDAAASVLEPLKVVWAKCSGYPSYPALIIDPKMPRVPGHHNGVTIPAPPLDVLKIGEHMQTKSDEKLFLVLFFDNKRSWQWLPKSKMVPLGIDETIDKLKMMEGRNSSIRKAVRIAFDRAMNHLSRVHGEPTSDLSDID

[10] = species: Homo sapiens; experiment: Inhibition of JAK1alpha1 (unknown origin) at 1 uM relative to control
[11] = molecular target: Serine/threonine-protein kinase SIK2 (Homo sapiens) (UniProt Q9H0K1); experiment: Inhibition of SIK2 (unknown origin) at 1 uM relative to control
Sequence of Serine/threonine-protein kinase SIK2 (Homo sapiens) (Q9H0K1 whole entry, looked up): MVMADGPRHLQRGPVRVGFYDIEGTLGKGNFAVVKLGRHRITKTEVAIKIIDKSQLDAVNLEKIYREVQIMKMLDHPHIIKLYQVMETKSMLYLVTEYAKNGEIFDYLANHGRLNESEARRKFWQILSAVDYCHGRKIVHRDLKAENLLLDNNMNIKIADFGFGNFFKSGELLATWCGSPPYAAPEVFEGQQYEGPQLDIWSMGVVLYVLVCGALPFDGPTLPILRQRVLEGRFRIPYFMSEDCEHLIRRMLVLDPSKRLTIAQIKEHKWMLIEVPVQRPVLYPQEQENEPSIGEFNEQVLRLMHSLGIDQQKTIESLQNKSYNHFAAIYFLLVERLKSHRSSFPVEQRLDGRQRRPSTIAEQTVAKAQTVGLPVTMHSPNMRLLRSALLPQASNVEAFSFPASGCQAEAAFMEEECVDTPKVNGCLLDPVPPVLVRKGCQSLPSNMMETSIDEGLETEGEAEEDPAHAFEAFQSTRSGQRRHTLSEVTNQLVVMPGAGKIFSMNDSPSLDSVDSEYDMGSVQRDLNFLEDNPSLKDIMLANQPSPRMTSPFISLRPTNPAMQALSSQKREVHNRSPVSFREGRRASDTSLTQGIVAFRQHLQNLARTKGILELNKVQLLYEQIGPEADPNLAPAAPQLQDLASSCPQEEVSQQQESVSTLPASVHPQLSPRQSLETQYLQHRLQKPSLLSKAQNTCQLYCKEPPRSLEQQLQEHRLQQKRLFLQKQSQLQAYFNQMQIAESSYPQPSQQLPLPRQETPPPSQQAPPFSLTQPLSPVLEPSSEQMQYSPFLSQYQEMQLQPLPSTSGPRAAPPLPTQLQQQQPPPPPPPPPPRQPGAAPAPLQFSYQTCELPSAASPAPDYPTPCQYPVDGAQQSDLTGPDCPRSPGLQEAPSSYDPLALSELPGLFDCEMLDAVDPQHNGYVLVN

Sequence of Bromodomain adjacent to zinc finger domain protein 2A (Q9UIF9 whole entry, the tested form may be a part): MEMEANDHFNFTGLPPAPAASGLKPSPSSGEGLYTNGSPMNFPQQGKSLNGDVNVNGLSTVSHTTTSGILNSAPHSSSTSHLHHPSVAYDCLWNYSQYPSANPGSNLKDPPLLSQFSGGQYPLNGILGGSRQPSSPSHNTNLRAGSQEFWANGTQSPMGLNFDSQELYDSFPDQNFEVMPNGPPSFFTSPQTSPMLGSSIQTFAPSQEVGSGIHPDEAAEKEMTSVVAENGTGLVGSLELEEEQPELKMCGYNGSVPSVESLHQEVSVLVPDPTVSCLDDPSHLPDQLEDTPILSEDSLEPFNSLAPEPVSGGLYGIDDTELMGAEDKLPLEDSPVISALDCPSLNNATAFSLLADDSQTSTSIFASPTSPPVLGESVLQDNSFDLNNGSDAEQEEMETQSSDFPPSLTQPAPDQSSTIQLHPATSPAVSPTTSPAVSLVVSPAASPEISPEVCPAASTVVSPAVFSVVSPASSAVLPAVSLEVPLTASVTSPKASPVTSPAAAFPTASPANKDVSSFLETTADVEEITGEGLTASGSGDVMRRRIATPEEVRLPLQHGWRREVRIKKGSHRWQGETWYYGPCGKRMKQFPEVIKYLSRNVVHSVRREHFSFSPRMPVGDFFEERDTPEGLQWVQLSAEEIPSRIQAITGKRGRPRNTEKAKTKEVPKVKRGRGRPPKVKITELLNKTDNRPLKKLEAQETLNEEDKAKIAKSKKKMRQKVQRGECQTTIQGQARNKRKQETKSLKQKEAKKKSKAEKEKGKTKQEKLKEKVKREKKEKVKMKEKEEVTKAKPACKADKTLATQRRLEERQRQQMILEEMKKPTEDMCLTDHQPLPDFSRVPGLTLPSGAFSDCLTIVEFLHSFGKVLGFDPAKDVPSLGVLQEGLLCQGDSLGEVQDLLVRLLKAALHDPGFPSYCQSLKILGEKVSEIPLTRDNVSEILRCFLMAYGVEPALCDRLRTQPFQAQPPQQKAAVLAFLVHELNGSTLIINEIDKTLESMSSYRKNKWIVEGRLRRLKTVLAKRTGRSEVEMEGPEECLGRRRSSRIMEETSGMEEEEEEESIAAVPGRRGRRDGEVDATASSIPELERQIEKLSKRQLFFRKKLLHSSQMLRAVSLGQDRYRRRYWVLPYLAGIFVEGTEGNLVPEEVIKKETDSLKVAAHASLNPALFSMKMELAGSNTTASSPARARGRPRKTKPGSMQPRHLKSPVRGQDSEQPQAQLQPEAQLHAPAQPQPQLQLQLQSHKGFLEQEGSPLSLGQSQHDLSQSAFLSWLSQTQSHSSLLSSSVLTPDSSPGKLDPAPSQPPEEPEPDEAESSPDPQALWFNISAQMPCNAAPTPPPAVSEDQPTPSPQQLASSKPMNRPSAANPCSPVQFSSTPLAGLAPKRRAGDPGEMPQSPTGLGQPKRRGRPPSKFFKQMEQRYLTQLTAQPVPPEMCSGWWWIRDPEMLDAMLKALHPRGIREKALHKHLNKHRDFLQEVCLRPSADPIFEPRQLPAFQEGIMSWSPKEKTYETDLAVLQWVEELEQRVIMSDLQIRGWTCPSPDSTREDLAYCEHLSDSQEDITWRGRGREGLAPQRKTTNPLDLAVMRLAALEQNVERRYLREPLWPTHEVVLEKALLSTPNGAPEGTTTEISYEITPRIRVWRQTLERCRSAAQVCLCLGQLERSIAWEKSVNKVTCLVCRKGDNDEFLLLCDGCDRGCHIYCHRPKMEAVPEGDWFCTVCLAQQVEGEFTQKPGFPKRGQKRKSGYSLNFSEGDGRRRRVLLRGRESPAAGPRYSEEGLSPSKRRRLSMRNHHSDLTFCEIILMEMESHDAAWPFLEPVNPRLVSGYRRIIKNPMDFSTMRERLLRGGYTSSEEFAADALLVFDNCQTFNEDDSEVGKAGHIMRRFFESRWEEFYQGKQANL

Row | Compound | IC50 [1] [µM] | IC50 [2] [µM] | IC50 [3] [µM] | IC50 [4] [µM] | IC50 [5] [µM] | IC50 [6] [µM] | Kd [7] [µM] | Kd [8] [µM] | Kd [9] [µM] | inhibition [10] [%] | inhibition [11] [%]
1 | C/C=C/Cn1cc(-c2ccc(C(=O)N3CCOCC3)cc2)c2cc[nH]c2c1=O | 20 | 20 | 20 | 20 | 20 | 20 | > 10 | > 10 | > 10 | 25.3 | 2.8
2 | C/C=C/Cn1cc(-c2cc(OC)c(C(C)(C)O)cc2OC)c2cc(C)[nH]c2c1=O | – | – | – | – | – | – | 9.3 | > 10 | > 10 | – | –
3 | C/C=C/Cn1cc(-c2cc(OC)c(C(=O)N3CCOCC3)cc2OC)c2cc(C)[nH]c2c1=O | 2 | 2 | 2 | 2 | 2 | 2 | > 10 | > 10 | > 10 | -9.5 | 1.5
4 | C/C=C/Cn1cc(-c2ccc(C(C)(C)O)cc2OC)c2cc[nH]c2c1=O | 20 | 20 | 20 | 20 | 20 | 20 | > 10 | > 10 | > 10 | -4 | 0.5
